# Data: ChEMBL document CHEMBL1135177 (Bioorg Med Chem Lett, 2002)
# pKi: −log10 of the molar value.
# Experiments:
# Type in all cases: cell-based
# [1] = biological target: T1, Muscarinic acetylcholine receptor M1 (Homo sapiens, UniProt P11229); assay: Binding affinity against human muscarine receptor (hM1) cloned in CHO cells
# T1 sequence (P11229 whole entry): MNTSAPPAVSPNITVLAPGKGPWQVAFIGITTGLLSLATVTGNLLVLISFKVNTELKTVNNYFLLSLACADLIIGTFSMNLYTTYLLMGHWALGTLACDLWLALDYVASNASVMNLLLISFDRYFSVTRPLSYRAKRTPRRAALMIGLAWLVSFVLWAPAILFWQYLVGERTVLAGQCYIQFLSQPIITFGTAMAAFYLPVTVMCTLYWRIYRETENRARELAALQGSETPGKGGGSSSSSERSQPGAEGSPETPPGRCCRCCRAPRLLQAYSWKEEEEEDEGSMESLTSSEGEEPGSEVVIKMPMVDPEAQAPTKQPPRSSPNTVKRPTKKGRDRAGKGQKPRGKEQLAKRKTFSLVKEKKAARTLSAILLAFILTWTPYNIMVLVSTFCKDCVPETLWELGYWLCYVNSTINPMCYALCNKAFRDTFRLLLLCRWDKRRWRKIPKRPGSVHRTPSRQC
# [2] = biological target: T2, Muscarinic acetylcholine receptor M2 (Homo sapiens, UniProt P08172); assay: Binding affinity against human muscarine receptor (hM2) cloned in CHO cells
# T2 sequence (P08172 whole entry): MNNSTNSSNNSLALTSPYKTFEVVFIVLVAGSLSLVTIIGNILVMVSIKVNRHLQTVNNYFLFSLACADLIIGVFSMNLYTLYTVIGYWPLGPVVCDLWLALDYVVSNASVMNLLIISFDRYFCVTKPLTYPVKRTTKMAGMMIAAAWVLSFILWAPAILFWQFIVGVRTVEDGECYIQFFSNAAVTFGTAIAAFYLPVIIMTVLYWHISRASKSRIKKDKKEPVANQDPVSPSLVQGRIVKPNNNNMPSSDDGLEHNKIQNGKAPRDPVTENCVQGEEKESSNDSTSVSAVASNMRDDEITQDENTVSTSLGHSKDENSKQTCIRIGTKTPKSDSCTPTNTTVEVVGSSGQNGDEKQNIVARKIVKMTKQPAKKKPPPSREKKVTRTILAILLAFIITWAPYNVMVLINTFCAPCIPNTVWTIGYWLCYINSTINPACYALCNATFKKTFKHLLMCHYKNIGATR
# [3] = biological target: Muscarinic acetylcholine receptor M3 (Homo sapiens, UniProt P20309); assay: Binding affinity against human muscarine receptor (hM3) cloned in CHO cells
# [4] = biological target: T3, Muscarinic acetylcholine receptor M4 (Homo sapiens, UniProt P08173); assay: Binding affinity against human muscarine receptor (hM4) cloned in CHO cells
# T3 sequence (P08173 whole entry): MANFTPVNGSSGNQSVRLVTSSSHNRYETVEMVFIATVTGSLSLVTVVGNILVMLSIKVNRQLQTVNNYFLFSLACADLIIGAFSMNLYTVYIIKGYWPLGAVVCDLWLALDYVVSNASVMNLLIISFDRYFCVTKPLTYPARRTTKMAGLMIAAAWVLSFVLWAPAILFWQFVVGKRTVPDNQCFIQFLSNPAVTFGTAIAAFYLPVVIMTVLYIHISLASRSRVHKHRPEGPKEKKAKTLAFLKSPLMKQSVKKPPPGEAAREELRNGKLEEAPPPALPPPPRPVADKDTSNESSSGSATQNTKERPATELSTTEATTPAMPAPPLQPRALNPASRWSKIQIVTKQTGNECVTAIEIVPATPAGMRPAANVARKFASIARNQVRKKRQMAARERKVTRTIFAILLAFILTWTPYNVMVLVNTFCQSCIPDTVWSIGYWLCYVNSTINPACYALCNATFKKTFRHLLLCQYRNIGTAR
# Sequence of Muscarinic acetylcholine receptor M3 (P20309 whole entry): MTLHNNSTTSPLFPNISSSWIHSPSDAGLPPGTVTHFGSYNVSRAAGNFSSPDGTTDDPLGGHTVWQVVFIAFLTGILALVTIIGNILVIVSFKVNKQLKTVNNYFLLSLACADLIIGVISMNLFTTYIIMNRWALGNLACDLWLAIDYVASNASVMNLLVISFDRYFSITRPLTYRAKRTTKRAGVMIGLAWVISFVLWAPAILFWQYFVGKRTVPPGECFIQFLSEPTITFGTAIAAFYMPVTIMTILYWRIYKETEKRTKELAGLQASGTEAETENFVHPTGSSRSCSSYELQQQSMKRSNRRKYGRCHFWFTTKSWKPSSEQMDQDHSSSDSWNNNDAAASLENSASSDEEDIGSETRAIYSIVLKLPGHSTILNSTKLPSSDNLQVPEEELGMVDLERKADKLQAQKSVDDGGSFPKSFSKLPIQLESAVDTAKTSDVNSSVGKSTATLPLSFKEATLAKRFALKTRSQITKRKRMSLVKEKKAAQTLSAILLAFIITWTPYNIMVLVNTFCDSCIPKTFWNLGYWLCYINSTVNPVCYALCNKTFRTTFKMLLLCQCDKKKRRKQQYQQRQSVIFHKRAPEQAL
structure (smiles),measurement,setting,value
C[C@@H]1OC(=O)[C@H]2C[C@H]3CCCC[C@@H]3[C@@H](/C=C\[C@H]3CCC[C@H](C)N3C)[C@@H]12,pKi,[1],5.82
same,pKi,[2],5.76
C[C@@H]1OC(=O)[C@@H]2C[C@@H]3CCCC[C@@H]3[C@@H](/C=C/[C@H]3CCC[C@H](C)N3C)[C@H]12,pKi,[1],6.37
same,pKi,[2],7.02
C[C@@H]1OC(=O)[C@H]2C[C@H]3CCCC[C@H]3[C@H](/C=C\[C@H]3CCC[C@H](C)N3C)[C@@H]12,pKi,[1],5.59
same,pKi,[2],6.07
C[C@@H]1OC(=O)[C@H]2C[C@H]3CCCC[C@@H]3[C@@H](/C=C/[C@H]3CCC[C@H](C)N3C)[C@@H]12 [HIMBACINE],pKi,[1],6.80
same,pKi,[2],8.33
C[C@@H]1OC(=O)[C@@H]2C[C@@H]3CCCC[C@@H]3[C@@H](/C=C\[C@H]3CCC[C@H](C)N3C)[C@H]12,pKi,[1],5.63
same,pKi,[2],6.17
C[C@@H]1OC(=O)[C@H]2C[C@H]3CCCC[C@H]3[C@H](C#C[C@H]3CCC[C@H](C)N3C)[C@@H]12,pKi,[1],5.27
same,pKi,[2],5.94
same,pKi,[3],5.30
same,pKi,[4],5.76
C[C@@H]1OC(=O)[C@H]2C[C@H]3CCCC[C@@H]3[C@@H](C#C[C@H]3CCC[C@H](C)N3C)[C@@H]12,pKi,[1],5.49
same,pKi,[2],6.51
same,pKi,[3],5.48
same,pKi,[4],6.05
C[C@@H]1OC(=O)[C@H]2C[C@H]3CCCC[C@H]3[C@H](/C=C/[C@H]3CCC[C@H](C)N3C)[C@@H]12,pKi,[1],5.76
same,pKi,[2],6.77
C[C@@H]1OC(=O)[C@@H]2C[C@@H]3CCCC[C@@H]3[C@@H](C#C[C@H]3CCC[C@H](C)N3C)[C@H]12,pKi,[1],5.49
same,pKi,[2],5.93
same,pKi,[3],4.96
same,pKi,[4],5.71
